Data: patent US20260226084A1, “DUAL RAF AND TUBULIN INHIBITORS AND METHODS OF USE THEREOF” (Deciphera Pharmaceuticals, LLC, priority 2023, published 2026)
Where two headings read alike, the source gives them in different places.

Assays:
HCT-116 cells = test: HCT-116 Cell Proliferation Assay; type: cell-based
How it was run: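 IC50 values come from resazurin fluorescence (540 nm excitation, 600 nm emission) added for 4 to 5 h after compound treatment. Treatment: serially diluted compound in triplicate on 375 HCT-116 cells per well in complete McCoy's 5A/10% FBS, 67 to 72 hours, 37 °C, 5% CO2.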

HPAF-II cells = test: HPAF-II Cell Proliferation Assay; type: cell-based
How it was run: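 Viability read-out was resazurin fluorescence (540 nm excitation, 600 nm emission), developed 18–24 h after a 115–120 h compound exposure of 750 HPAF-II cells per well in MEM/10% FBS at 37 °C. Compound was tested as a serial dilution in triplicate, and IC50 values were calculated.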

[1] = biological target: T1, C-Raf kinase (SEQ ID NO: 2) (Homo sapiens, UniProt P04049, Y340D/Y341D); test: Biochemical Assay for C-Raf (coupled pyruvate kinase/lactate dehydrogenase assay)
T1 construct: C-Raf residues 306-end; Y340D, Y341D with; GST (N); purchased Sigma

[2] = biological target: T2, B-Raf kinase (SEQ ID NO: 1) (Homo sapiens, UniProt P15056); test: Biochemical Assay for B-Raf (coupled pyruvate kinase/lactate dehydrogenase assay)
T2 construct: GST (N); purchased Sigma

Pa16c cells = test: Pa16c Cell Proliferation Assay; type: cell-based; conditions: Table 2, read-out: Inhibition of cell proliferation in Pa16c (IC50 class)
How it was run: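 Proliferation read-out: resazurin fluorescence (540 nm excitation, 600 nm emission) after an extra 18 to 24 h. Before that, compound dilution series (triplicate) stayed on 750 Pa16c cells/well in complete DMEM/10% FBS for 67 to 72 h at 37° C. IC50 values derived from the curves.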

MiaPaca-2 cells = test: MiaPaca-2 Cell Proliferation Assay; type: cell-based
How it was run: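 Viability was read as resazurin fluorescence (540 nm excitation, 600 nm emission) after 5–6 h with dye. Compounds were tested as serial dilutions in triplicate, with IC50 derived from the dose–response.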

Porcine Brain Tubulin = biological target: T3, Porcine Brain Tubulin (Sus scrofa, UniProt P02550+P02554); test: Biochemical Tubulin Polymerization Assay
T3 construct: Porcine Brain Tubulin (T240); purchased Cytoskeleton, Inc T240; BK011P; host or cells: porcine brain (tissue-purified)

[3] = Homo sapiens, HCT-116, HCT-116 cells, Table 2, read-out: Inhibition of cell proliferation in HCT-116 (IC50 class)
[4] = Homo sapiens, HPAF-II, HPAF-II cells, Table 2, read-out: Inhibition of cell proliferation in HPAF-II (IC50 class)
[5] = 1 mM ATP, read-out: CRAF (inhibition of biochemical activity, IC50)
[6] = 1 mM ATP, read-out: BRAF (inhibition of biochemical activity, IC50)
[7] = Homo sapiens, MIA PaCa-2, MiaPaca-2 cells, Table 2, read-out: Inhibition of cell proliferation in MiaPaca-2 (IC50 class)
[8] = Homo sapiens, HCT-116, Table 4, HCT-116 mutant KRAS colorectal cancer cell line, read-out: HCT-116 IC50
[9] = Homo sapiens, HPAF-II, Table 4, HPAF-II mutant KRAS pancreatic cancer cell line, read-out: HPAF-II IC50
[10] = Table 4, representative compounds from PCT/US2022/081242, read-out: CRAF IC50
[11] = Table 4, representative compounds from PCT/US2022/081242, read-out: BRAF IC50
[12] = Homo sapiens, MIA PaCa-2, Table 4, MiaPaca-2 mutant KRAS pancreatic cancer cell line, read-out: MiaPaca-2 IC50
[13] = Table 4, representative compounds from PCT/US2022/081242, read-out: Tubulin Biochem IC50
[14] = HCT-116 cells, Table 2, read-out: Inhibition of cell proliferation in HCT-116 (IC50 class)
[15] = HPAF-II cells, Table 2, read-out: Inhibition of cell proliferation in HPAF-II (IC50 class)
[16] = MiaPaca-2 cells, Table 2, read-out: Inhibition of cell proliferation in MiaPaca-2 (IC50 class)

T3 sequence (P02550 whole entry): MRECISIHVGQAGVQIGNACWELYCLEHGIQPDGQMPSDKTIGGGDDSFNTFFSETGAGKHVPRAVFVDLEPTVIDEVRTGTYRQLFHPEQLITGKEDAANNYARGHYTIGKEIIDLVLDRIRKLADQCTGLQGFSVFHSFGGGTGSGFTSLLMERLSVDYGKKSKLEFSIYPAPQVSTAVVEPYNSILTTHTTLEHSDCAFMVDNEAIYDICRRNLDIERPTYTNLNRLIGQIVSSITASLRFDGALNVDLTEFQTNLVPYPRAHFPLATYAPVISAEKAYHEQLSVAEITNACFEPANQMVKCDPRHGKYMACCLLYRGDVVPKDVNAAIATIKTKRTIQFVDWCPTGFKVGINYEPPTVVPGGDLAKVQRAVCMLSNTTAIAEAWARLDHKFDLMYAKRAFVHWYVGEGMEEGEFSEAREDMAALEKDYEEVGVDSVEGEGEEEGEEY
T3 sequence (P02554 whole entry): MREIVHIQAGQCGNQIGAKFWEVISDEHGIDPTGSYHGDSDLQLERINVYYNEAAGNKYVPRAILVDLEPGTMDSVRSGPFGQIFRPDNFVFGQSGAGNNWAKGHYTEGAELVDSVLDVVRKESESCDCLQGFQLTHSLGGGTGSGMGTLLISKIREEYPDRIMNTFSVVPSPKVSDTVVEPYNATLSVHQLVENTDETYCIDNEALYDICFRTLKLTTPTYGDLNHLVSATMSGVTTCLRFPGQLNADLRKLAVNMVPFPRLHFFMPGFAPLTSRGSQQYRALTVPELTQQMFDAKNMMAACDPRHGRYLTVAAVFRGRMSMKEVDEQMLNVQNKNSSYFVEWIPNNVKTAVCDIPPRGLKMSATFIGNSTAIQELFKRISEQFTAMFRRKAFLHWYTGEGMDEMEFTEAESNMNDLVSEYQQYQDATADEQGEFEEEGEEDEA
T1 sequence (P04049 307-648 Y340D/Y341D): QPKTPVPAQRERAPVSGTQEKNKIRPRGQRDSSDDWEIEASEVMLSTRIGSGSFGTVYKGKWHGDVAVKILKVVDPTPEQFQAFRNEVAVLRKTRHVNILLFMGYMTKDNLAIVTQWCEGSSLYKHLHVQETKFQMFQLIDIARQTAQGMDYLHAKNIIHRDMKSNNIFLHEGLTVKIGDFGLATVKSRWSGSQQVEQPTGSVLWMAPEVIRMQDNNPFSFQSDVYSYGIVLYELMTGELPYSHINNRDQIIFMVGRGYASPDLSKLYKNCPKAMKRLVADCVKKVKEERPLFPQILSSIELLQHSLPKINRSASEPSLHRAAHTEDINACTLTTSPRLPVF
T2 sequence (P15056 416-766): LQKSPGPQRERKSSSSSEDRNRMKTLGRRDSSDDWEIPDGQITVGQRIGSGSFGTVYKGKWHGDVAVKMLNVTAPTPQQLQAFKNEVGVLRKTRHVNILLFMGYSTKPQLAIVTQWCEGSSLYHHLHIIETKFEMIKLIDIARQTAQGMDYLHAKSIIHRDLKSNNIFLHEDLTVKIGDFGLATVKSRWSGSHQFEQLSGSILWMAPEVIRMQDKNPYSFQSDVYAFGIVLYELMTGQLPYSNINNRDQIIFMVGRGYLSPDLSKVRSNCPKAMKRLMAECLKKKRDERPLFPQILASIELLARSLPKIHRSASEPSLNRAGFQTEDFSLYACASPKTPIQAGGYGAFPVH

SMILES	IC50 (HCT-116 cells; [3])	IC50 (HPAF-II cells; [4])	IC50 [1, 5]	IC50 [2, 6]	IC50 (Pa16c cells)	IC50 (MiaPaca-2 cells; [7])	other results
Cc1ccc(NC(=O)c2cc(C(C)(C)F)cnn2)cc1-c1ccnc(-c2ccnc(NC(=O)C3CC3)c2)c1 [Example 59]	< 100 nM	100 to 500 nM	< 100 nM	< 100 nM	100 to 500 nM	100 to 500 nM	IC50 (HCT-116 cells; Homo sapiens, HCT-116, Table 3, read-out: HCT-116 (IC50 class)): < 100 nM; IC50 (HPAF-II cells; Homo sapiens, HPAF-II, Table 3, read-out: HPAF-II (IC50 class)): 100 to 500 nM; IC50 ([1]; Table 3, read-out: CRAF (IC50 class)): < 100 nM; IC50 ([2]; Table 3, read-out: BRAF (IC50 class)): < 100 nM; IC50 (MiaPaca-2 cells; Homo sapiens, MIA PaCa-2, Table 3, read-out: MiaPaca-2 (IC50 class)): 100 to 500 nM; IC50 (Porcine Brain Tubulin; Table 3, Tubulin Biochemical assay, read-out: Tubulin Biochem (IC50 class)): < 3000 nM
Cc1ccc(NC(=O)c2ccnc(C3CC3)c2)cc1-c1ccnc(-c2ccnc(NC(=O)C3CC3)c2)c1 [reference compound]	–	–	–	–	–	–	IC50 (HCT-116 cells; [8]): 500 to 1000 nM; IC50 (HPAF-II cells; [9]): 1000 to 10000 nM; IC50 [1, 10]: < 100 nM; IC50 [2, 11]: < 100 nM; IC50 (MiaPaca-2 cells; [12]): 1000 to 10000 nM; IC50 (Porcine Brain Tubulin; [13]): > 100000 nM
Cc1ccc(NC(=O)c2ccnc(C(C)(C)F)c2)cc1-c1ccnc(-c2ccnc(NC(=O)C3CC3)c2)c1 [reference compound]	–	–	–	–	–	–	IC50 (HCT-116 cells; [8]): 100 to 500 nM; IC50 (HPAF-II cells; [9]): 500 to 1000 nM; IC50 [1, 10]: < 100 nM; IC50 [2, 11]: < 100 nM; IC50 (MiaPaca-2 cells; [12]): 1000 to 10000 nM; IC50 (Porcine Brain Tubulin; [13]): > 100000 nM
Cc1ccc(NC(=O)c2cc(N)cnn2)cc1-c1ccnc(-c2ccnc(NC(=O)C3CC3)c2)c1 [Example 99]	1000 to 10000 nM	1000 to 10000 nM	100 to 500 nM	500 to 1000 nM	1000 to 10000 nM	1000 to 10000 nM	–
Cc1ccc(NC(=O)c2cc(Br)cnn2)cc1-c1ccnc(-c2ccnc(NC(=O)C3CC3)c2)c1 [Example 130]	500 to 1000 nM	1000 to 10000 nM	< 100 nM	< 100 nM	500 to 1000 nM	100 to 500 nM	–
Cc1ccc(NC(=O)c2cnc(C(F)(F)F)nc2)cc1-c1ccnc(-c2cn[nH]c2)c1 [Example 126]	< 100 nM	100 to 500 nM	1000 to 10000 nM	1000 to 10000 nM	100 to 500 nM	< 100 nM	–
Cc1ccc(NC(=O)c2cc(C#N)cnn2)cc1-c1cc(N[C@H](C)CO)nc(-c2ccnc(NC(=O)C3CC3)c2)c1 [Example 151]	1000 to 10000 nM	1000 to 10000 nM	500 to 1000 nM	500 to 1000 nM	1000 to 10000 nM	1000 to 10000 nM	–
Cc1ccc(NC(=O)c2ccnc(C(C)C)c2)cc1-c1ccnc(-c2ccnc(NC(=O)C3CC3)c2)c1 [reference compound]	–	–	–	–	–	–	IC50 (HCT-116 cells; [8]): 1000 to 10000 nM; IC50 (HPAF-II cells; [9]): 100 to 500 nM; IC50 [1, 10]: < 100 nM; IC50 [2, 11]: < 100 nM; IC50 (Porcine Brain Tubulin; [13]): > 100000 nM
Cc1ccc(NC(=O)c2cncc(C(C)(C)F)c2)cc1-c1cncc(-c2cc(NC(=O)C3CC3)ncn2)c1 [Example 68]	< 100 nM	< 100 nM	< 100 nM	< 100 nM	500 to 1000 nM	100 to 500 nM	–
Cc1ccc(NC(=O)c2cncc(C(C)(C)C#N)c2)cc1-c1ccnc(-c2ccnc(NC(=O)C3CC3)c2)c1 [Example 105]	< 100 nM	100 to 500 nM	< 100 nM	< 100 nM	1000 to 10000 nM	100 to 500 nM	–
Cc1ccc(NC(=O)c2ccc(C(F)(F)F)nc2)cc1-c1ccnc(-c2ccnc(NC(=O)C3CC3)c2)c1 [Example 79]	–	–	< 100 nM	< 100 nM	100 to 500 nM	–	IC50 (HCT-116 cells; [14]): 100 to 500 nM; IC50 (HPAF-II cells; [15]): 100 to 500 nM; IC50 (MiaPaca-2 cells; [16]): 100 to 500 nM
COCC(=O)Nc1cc(-c2cc(-c3cc(NC(=O)c4cc(C(F)(F)F)cnn4)ccc3C)ccn2)ccn1 [Example 48]	< 100 nM	100 to 500 nM	< 100 nM	< 100 nM	< 100 nM	< 100 nM	–
Cc1ccc(NC(=O)c2cc(C(F)(F)F)cnn2)cc1-c1ccnc(-c2ccnc(NC(=O)C3CCC3)c2)c1 [Example 8]	100 to 500 nM	< 100 nM	< 100 nM	< 100 nM	< 100 nM	100 to 500 nM	–
Cc1ccc(NC(=O)c2cc(C(C)(F)F)cnn2)cc1-c1cc(N[C@H](C)CO)nc(-c2cn[nH]c2)c1 [Example 121]	< 100 nM	100 to 500 nM	< 100 nM	< 100 nM	< 100 nM	< 100 nM	–
CONc1cc(-c2cc(-c3cc(NC(=O)c4cc(C(F)(F)F)cnn4)ccc3C)ccn2)ccn1 [Example 128, N-(3-(2′-(methoxyamino)-[2,4′-bipyridin]-4-yl)-4-methylphenyl)-5-(trifluoromethyl)pyridazine-3-carboxamide]	100 to 500 nM	100 to 500 nM	100 to 500 nM	100 to 500 nM	500 to 1000 nM	100 to 500 nM	–
CC(=O)Nc1cc(-c2cc(-c3cc(NC(=O)c4cc(C(F)(F)F)cnn4)ccc3C)ccn2)ccn1 [Example 93]	–	–	< 100 nM	< 100 nM	1000 to 10000 nM	–	IC50 (HCT-116 cells; [14]): < 100 nM; IC50 (HPAF-II cells; [15]): < 100 nM; IC50 (MiaPaca-2 cells; [16]): 100 to 500 nM
Cc1ccc(NC(=O)c2cc(OC(F)F)cnn2)cc1-c1ccnc(-c2ccnc(NC(=O)C3CC3)c2)c1 [Example 134]	100 to 500 nM	1000 to 10000 nM	< 100 nM	< 100 nM	100 to 500 nM	500 to 1000 nM	–
Cc1ccc(NC(=O)c2cc(C(F)(F)F)cnn2)cc1-c1ccnc(-c2ccnc(NC=O)c2)c1 [Example 110]	< 100 nM	< 100 nM	< 100 nM	< 100 nM	< 100 nM	< 100 nM	–
Cc1ccc(NC(=O)c2cc(C3CC3)cnn2)cc1-c1ccnc(-c2ccsc2)c1 [Example 144]	100 to 500 nM	100 to 500 nM	1000 to 10000 nM	1000 to 10000 nM	100 to 500 nM	100 to 500 nM	–
Cc1ccc(NC(=N)c2cc(C3CC3)cnn2)cc1-c1ccnc(-c2ccnc(NC(=O)C3CC3)c2)c1 [Example 87]	1000 to 10000 nM	1000 to 10000 nM	< 100 nM	< 100 nM	1000 to 10000 nM	1000 to 10000 nM	–
